Like-named read-outs stand apart in the source and are kept apart here.

The target in the assay is T1, BRM (Homo sapiens, UniProt P51531).
T1 construct: In-Cell Western Screen of BRM Degradation in SW1573 Cells; endogenous in cells; host or cells: SW1573
The assay can be described thus: In-cell Western screen of BRM degradation in SW1573 cells (Dmax and DC50). The class given is cell-based. Summed up: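 BRM levels were read by LI-COR in-cell Western after two-channel (800/680 nm) immunostaining of fixed, Triton-permeabilised SW1573 cells.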

Where [1] appears, read: SW1573, % degraded, when tested at the top concentration of between 0.3 and 10 μM, read-out: BRM Dmax (%).
The mark [2] stands for this setting: degradation of BRM, read-out: BRM DC50.
Setting [3] is: BRM degradation, SW1573 cells, read-out: DC50.
[4] abbreviates: BRM degradation, SW1573 cells, when tested at the top concentration of between 0.3 and 10 μM, read-out: Dmax (%) (% degraded).
Setting [5] is: BRM degradation, SW1573 cells, Table 2D, read-out: **Dmax (%) (% degraded).
Setting [6] is: BRM degradation, SW1573 cells, Table 2D, read-out: *DC50.
Where [7] appears, read: BRM degradation, SW1573 cells, tested at the top concentration of between 0.3 and 10 μM, read-out: Dmax (%) (% degraded).

T1 sequence (P51531 whole entry): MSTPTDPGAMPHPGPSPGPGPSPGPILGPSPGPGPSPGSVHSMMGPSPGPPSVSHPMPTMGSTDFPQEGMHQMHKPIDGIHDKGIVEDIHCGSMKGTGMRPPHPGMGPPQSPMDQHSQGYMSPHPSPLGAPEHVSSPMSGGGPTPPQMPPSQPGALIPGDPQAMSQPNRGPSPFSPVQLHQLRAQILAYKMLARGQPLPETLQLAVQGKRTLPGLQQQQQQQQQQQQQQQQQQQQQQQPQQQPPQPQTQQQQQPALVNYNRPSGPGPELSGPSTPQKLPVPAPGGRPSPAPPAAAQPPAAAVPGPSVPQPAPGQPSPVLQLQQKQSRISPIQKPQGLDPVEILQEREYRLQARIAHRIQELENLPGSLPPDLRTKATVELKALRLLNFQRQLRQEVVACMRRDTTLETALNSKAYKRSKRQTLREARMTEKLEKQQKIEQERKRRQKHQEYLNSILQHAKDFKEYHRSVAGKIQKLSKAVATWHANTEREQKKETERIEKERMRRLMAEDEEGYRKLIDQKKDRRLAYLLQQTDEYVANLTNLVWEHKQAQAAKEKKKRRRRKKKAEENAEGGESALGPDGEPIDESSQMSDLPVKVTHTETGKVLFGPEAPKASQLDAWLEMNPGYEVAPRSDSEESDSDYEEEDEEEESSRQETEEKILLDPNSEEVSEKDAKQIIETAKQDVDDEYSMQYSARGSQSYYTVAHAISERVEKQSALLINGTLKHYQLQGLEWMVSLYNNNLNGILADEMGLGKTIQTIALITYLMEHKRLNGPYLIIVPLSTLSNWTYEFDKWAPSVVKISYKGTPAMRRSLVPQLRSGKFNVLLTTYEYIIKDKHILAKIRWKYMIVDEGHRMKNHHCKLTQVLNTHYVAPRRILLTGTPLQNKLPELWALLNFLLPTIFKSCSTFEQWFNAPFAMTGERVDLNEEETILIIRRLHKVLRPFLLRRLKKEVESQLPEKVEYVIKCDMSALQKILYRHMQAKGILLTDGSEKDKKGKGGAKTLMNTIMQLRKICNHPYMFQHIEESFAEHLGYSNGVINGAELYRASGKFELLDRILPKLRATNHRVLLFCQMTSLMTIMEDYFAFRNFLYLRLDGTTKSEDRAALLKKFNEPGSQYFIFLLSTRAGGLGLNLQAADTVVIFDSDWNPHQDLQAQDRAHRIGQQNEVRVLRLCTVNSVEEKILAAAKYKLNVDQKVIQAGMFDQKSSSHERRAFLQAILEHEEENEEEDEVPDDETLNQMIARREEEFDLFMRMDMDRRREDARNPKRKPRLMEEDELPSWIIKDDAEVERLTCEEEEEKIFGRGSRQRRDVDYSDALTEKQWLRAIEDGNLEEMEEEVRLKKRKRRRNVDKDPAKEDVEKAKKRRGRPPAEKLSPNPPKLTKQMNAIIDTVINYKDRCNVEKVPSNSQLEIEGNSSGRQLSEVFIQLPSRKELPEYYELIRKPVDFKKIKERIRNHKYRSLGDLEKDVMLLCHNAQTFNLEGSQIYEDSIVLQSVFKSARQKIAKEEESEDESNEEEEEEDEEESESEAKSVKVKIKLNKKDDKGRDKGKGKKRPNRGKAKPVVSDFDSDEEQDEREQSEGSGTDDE

In the case of `Cc1ncsc1-c1ccc([C@H](C)NC(=O)[C@@H]2C[C@@H](O)CN2C(=O)[C@H](c2cc(OCCC3CCN([C@H]4C[C@H](CN5CCOC6(CCN(c7cc(-c8ccccc8O)nnc7N)CC6)C5)C4)CC3)no2)C(C)C)cc1` [compound 444, (2S,4R)-1-((S)-2-(3-(2-(1-((1r,3S)-3-((9-(3-amino-6-(2-hydroxyphenyl)pyridazin-4-yl)-1-oxa-4,9-diazaspiro[5.5]undecan-4-yl)methyl)cyclobutyl)piperidin-4-yl)ethoxy)isoxazol-5-yl)-3-methylbutanoyl)-4-hydroxy-N-((S)-1-(4-(4-methylthiazol-5-yl)phenyl)ethyl)pyrrolidine-2-carboxamide], the Dmax under setting [1] is above 75%. The 50% degradation concentration (DC50) under setting [2] is below 2.5 nM.

Turning to `Cc1ncsc1-c1ccc([C@H](CN)NC(=O)[C@@H]2C[C@@H](O)CN2C(=O)[C@@H](c2cc(OCCN3CCN(CCOc4cc(N5C6CCC5CN(c5cc(-c7ccccc7O)nnc5N)C6)ccn4)CC3)no2)C(C)C)cc1` [compound 103, (2S,4R)-N-((R)-2-amino-1-(4-(4-methylthiazol-5-yl)phenyl)ethyl)-1-((2R)-2-(3-(2-(4-(2-((4-(3-(3-amino-6-(2-hydroxyphenyl)pyridazin-4-yl)-3,8-diazabicyclo[3.2.1]octan-8-yl)pyridin-2-yl)oxy)ethyl)piperazin-1-yl)ethoxy)isoxazol-5-yl)-3-methylbutanoyl)-4-hydroxypyrrolidine-2-carboxamide], the 50% degradation concentration (DC50) under setting [3] was 2.5 to 10 nM. For the same molecule, the maximal degradation (Dmax) under setting [4] is above 75%.

For the molecule `Cc1ncsc1-c1ccc(CNC(=O)[C@@H]2C[C@@H](O)CN2C(=O)[C@@H](NC(=O)COCCOCCOCCOCCOc2cc(N3C4CCC3CN(c3cc(-c5ccccc5O)nnc3N)C4)ccn2)C(C)(C)C)cc1` [compound 7, (2S,4R)-1-((2S)-17-((4-(3-(3-amino-6-(2-hydroxyphenyl)pyridazin-4-yl)-3,8-diazabicyclo[3.2.1]octan-8-yl)pyridin-2-yl)oxy)-2-(tert-butyl)-4-oxo-6,9,12,15-tetraoxa-3-azaheptadecanoyl)-4-hydroxy-N-(4-(4-methylthiazol-5-yl)benzyl)pyrrolidine-2-carboxamide], the half-maximal degradation concentration (DC50) under setting [3] lay within 2.5 to 10 nM. Moreover, the maximal degradation (Dmax) under setting [4] is above 75%.

As to `COc1cc(C(C(=O)N2C[C@H](O)C[C@H]2C(=O)N[C@@H](C)c2ccc(-c3scnc3C)cc2)C(C)CC(=O)N(C)CCOc2cc(N3C4CCC3CN(c3cc(-c5ccccc5O)nnc3N)C4)ccn2)on1` (stereo partly drawn) [compound 289, (2S,4R)-1-(5-((2-((4-(3-(3-amino-6-(2-hydroxyphenyl)pyridazin-4-yl)-3,8-diazabicyclo[3.2.1]octan-8-yl)pyridin-2-yl)oxy)ethyl)(methyl)amino)-2-(3-methoxyisoxazol-5-yl)-3-methyl-5-oxopentanoyl)-4-hydroxy-N-((S)-1-(4-(4-methylthiazol-5-yl)phenyl)ethyl)pyrrolidine-2-carboxamide], the DC50 under setting [3] is above 30 nM.

As for `Cc1ncsc1-c1ccc([C@H](C)NC(=O)[C@@H]2C[C@@H](O)CN2C(=O)[C@@H](c2cc(N3CC(COCCOc4cc(N5C6CCC5CN(c5cc(-c7ccccc7O)nnc5N)C6)ccn4)C3)no2)C(C)C)cc1` [compound 550, (2S,4R)-1-((2R)-2-(3-(3-((2-((4-(3-(3-amino-6-(2-hydroxyphenyl)pyridazin-4-yl)-3,8-diazabicyclo[3.2.1]octan-8-yl)pyridin-2-yl)oxy)ethoxy)methyl)azetidin-1-yl)isoxazol-5-yl)-3-methylbutanoyl)-4-hydroxy-N-((S)-1-(4-(4-methylthiazol-5-yl)phenyl)ethyl)pyrrolidine-2-carboxamide], the maximal degradation (Dmax) under setting [5] is above 75%. Moreover, the 50% degradation concentration (DC50) under setting [6] is below 2.5 nM.

In the case of `Cc1nccn1-c1ccc([C@H](C)NC(=O)[C@@H]2C[C@@H](O)CN2C(=O)[C@@H](c2cc(N3CCN(CC4CCN(C[C@H]5C[C@H](Oc6cc(N7C8CCC7CN(c7cc(-c9ccccc9O)nnc7N)C8)ccn6)C5)CC4)CC3)no2)C(C)C)cc1` [compound 437, (2S,4R)-1-((2R)-2-(3-(4-((1-(((1r,3r)-3-((4-(3-(3-amino-6-(2-hydroxyphenyl)pyridazin-4-yl)-3,8-diazabicyclo[3.2.1]octan-8-yl)pyridin-2-yl)oxy)cyclobutyl)methyl)piperidin-4-yl)methyl)piperazin-1-yl)isoxazol-5-yl)-3-methylbutanoyl)-4-hydroxy-N-((S)-1-(4-(2-methyl-1H-imidazol-1-yl)phenyl)ethyl)pyrrolidine-2-carboxamide], under setting [1], the maximal degradation (Dmax) was above 75%. Also, the DC50 under setting [2] is below 2.5 nM.

Turning to `Cc1nccn1-c1ccc([C@H](C)NC(=O)[C@@H]2C[C@@H](O)CN2C(=O)[C@H](c2cc(OCC#Cc3ccc(O[C@H]4C[C@H](Oc5cc(N6C7CCC6CN(c6cc(-c8ccccc8O)nnc6N)C7)ccn5)C4)cn3)no2)C(C)C)cc1` [compound 233, (2S,4R)-1-((2S)-2-(3-((3-(5-((1r,3S)-3-((4-(3-(3-amino-6-(2-hydroxyphenyl)pyridazin-4-yl)-3,8-diazabicyclo[3.2.1]octan-8-yl)pyridin-2-yl)oxy)cyclobutoxy)pyridin-2-yl)prop-2-yn-1-yl)oxy)isoxazol-5-yl)-3-methylbutanoyl)-4-hydroxy-N-((S)-1-(4-(2-methyl-1H-imidazol-1-yl)phenyl)ethyl)pyrrolidine-2-carboxamide], the 50% degradation concentration (DC50) under setting [3] lay within 10 to 30 nM. In addition, under setting [7], the Dmax is above 75%.

Take `Cc1ncsc1-c1ccc([C@H](C)NC(=O)[C@@H]2C[C@@H](O)CN2C(=O)[C@@H](c2cc(OCCN3CCN(CCC#CCn4cc(-c5cc(-c6ccccc6O)nnc5N)cn4)CC3)no2)C(C)C)cc1` [compound 112, (2S,4R)-1-((R)-2-(3-(2-(4-(5-(4-(3-amino-6-(2-hydroxyphenyl)pyridazin-4-yl)-1H-pyrazol-1-yl)pent-3-yn-1-yl)piperazin-1-yl)ethoxy)isoxazol-5-yl)-3-methylbutanoyl)-4-hydroxy-N-((S)-1-(4-(4-methylthiazol-5-yl)phenyl)ethyl)pyrrolidine-2-carboxamide]: the DC50 under setting [3] is below 2.5 nM. Further, under setting [4], the Dmax was above 75%.

In the case of `Cc1ncsc1-c1ccc([C@@H](CN)NC(=O)[C@@H]2C[C@@H](O)CN2C(=O)[C@H](c2cc(OCCN3CCN(CCOc4cc(N5C6CCC5CN(c5cc(-c7ccccc7O)nnc5N)C6)ccn4)CC3)no2)C(C)C)cc1` [compound 255, (2S,4R)-N-((S)-2-amino-1-(4-(4-methylthiazol-5-yl)phenyl)ethyl)-1-((2S)-2-(3-(2-(4-(2-((4-(3-(3-amino-6-(2-hydroxyphenyl)pyridazin-4-yl)-3,8-diazabicyclo[3.2.1]octan-8-yl)pyridin-2-yl)oxy)ethyl)piperazin-1-yl)ethoxy)isoxazol-5-yl)-3-methylbutanoyl)-4-hydroxypyrrolidine-2-carboxamide], under setting [3], the DC50 is above 30 nM.

Consider `Cc1ncsc1-c1ccc([C@H](C)NC(=O)[C@@H]2C[C@@H](O)CN2C(=O)[C@@H](c2cc(OCCC3CCN(C[C@H]4C[C@H](N5CCC(CN6CCOC7(CCN(c8cc(-c9ccccc9O)nnc8N)CC7)C6)CC5)C4)CC3)no2)C(C)C)cc1` [compound 598, (2S,4R)-1-((R)-2-(3-(2-(1-(((1r,3R)-3-(4-((9-(3-amino-6-(2-hydroxyphenyl)pyridazin-4-yl)-1-oxa-4,9-diazaspiro[5.5]undecan-4-yl)methyl)piperidin-1-yl)cyclobutyl)methyl)piperidin-4-yl)ethoxy)isoxazol-5-yl)-3-methylbutanoyl)-4-hydroxy-N-((S)-1-(4-(4-methylthiazol-5-yl)phenyl)ethyl)pyrrolidine-2-carboxamide], for which the Dmax under setting [5] was above 75%. Further, the half-maximal degradation concentration (DC50) under setting [6] was below 2.5 nM.

`CC(C)C(C(=O)N1C[C@H](O)C[C@H]1C(=O)N[C@@H](C)c1ccc(-c2scnc2CO)cc1)c1cc(OCCN2CCN(CCOc3cc(N4C5CCC4CN(c4cc(-c6ccccc6O)nnc4N)C5)ccn3)CC2)no1` (stereo partly drawn) [compound 168, (2S,4R)-1-(2-(3-(2-(4-(2-((4-(3-(3-amino-6-(2-hydroxyphenyl)pyridazin-4-yl)-3,8-diazabicyclo[3.2.1]octan-8-yl)pyridin-2-yl)oxy)ethyl)piperazin-1-yl)ethoxy)isoxazol-5-yl)-3-methylbutanoyl)-4-hydroxy-N-((S)-1-(4-(4-(hydroxymethyl)thiazol-5-yl)phenyl)ethyl)pyrrolidine-2-carboxamide]: the 50% degradation concentration (DC50) under setting [3] is below 2.5 nM. Also, under setting [7], the Dmax is above 75%.

For `Cc1ncsc1-c1ccc([C@H](C)NC(=O)[C@@H]2C[C@@H](O)CN2C(=O)[C@H](c2cc(OCCN3CCN(CCOc4cc(N5C6CCC5CN(c5cc(-c7ccccc7O)nnc5N)C6)ccn4)CC3)no2)C(C)C)cc1` [compound 46, (2S,4R)-1-[(2S)-2-[3-[2-(4-[2-[(4-[3-[3-amino-6-(2-hydroxyphenyl)pyridazin-4-yl]-3,8-diazabicyclo[3.2.1]octan-8-yl]pyridin-2-yl)oxy]ethyl]piperazin-1-yl)ethoxy]-1,2-oxazol-5-yl]-3-methylbutanoyl]-4-hydroxy-N-[(1S)-1-[4-(4-methyl-1,3-thiazol-5-yl)phenyl]ethyl]pyrrolidine-2-carboxamide], the 50% degradation concentration (DC50) under setting [3] is above 30 nM. Also, the Dmax under setting [4] was 50 to 75%.

Turning to `CC(C)C(C(=O)N1C[C@H](O)C[C@H]1C(=O)N[C@@H](C)c1ccc(-c2scnc2CN(C)C)cc1)c1cc(OCCN2CCN(CCOc3cc(N4C5CCC4CN(c4cc(-c6ccccc6O)nnc4N)C5)ccn3)CC2)no1` (stereo partly drawn) [compound 167, (2S,4R)-1-(2-(3-(2-(4-(2-((4-(3-(3-amino-6-(2-hydroxyphenyl)pyridazin-4-yl)-3,8-diazabicyclo[3.2.1]octan-8-yl)pyridin-2-yl)oxy)ethyl)piperazin-1-yl)ethoxy)isoxazol-5-yl)-3-methylbutanoyl)-N-((S)-1-(4-(4-((dimethylamino)methyl)thiazol-5-yl)phenyl)ethyl)-4-hydroxypyrrolidine-2-carboxamide], the DC50 under setting [3] fell in the range of 10 to 30 nM. Further, under setting [7], the greatest degradation seen (Dmax) was above 75%.

The Dmax is the greatest extent of degradation seen. The DC50 is the midpoint of the concentration-degradation curve.
